Experimental data: patent publication US20030176456A1, “Methods for reducing alcohol cravings in chronic alcoholics” (priority 2001, published 2003)
Where two headings read alike, the source gives them in different places.

Columns and labels:
[1] = molecular target: T1, α1β3γ2 GABAA receptor (Homo sapiens, UniProt P14867+P18507); test: Binding affinity at recombinant GABAA receptors (Ltk cells stably transfected)
T1 construct: expressed in transfected cells

[2] = test system: GABAA α3β3γ2 receptors; test: Xenopus oocyte expression assay, modulation of GABA current; type: cell-based, rat; details: saturating 1-10 μM modulator with EC50 GABA (30 μM); mean±S.D.
[3] = molecular target: T2, α2β3γ2 GABAA receptor (Homo sapiens, UniProt P18507+P47869); test: Binding affinity at recombinant GABAA receptors (Ltk cells stably transfected)
T2 construct: expressed in transfected cells

[4] = molecular target: T3, α3β3γ2 GABAA receptor (Homo sapiens, UniProt P18507+P34903); test: as above
T3 construct: expressed in transfected cells

[5] = test system: P rats; test: EtOH and sucrose responding after oral (gavage) administration; type: in vivo, rat; details: for responding for sucrose: oral (gavage) 75 mg/kg; for EtOH responding / EtOH responding 24 hours after administration: oral (gavage); for EtOH responding: βCCt 15 & 30 mg/kg, 3-PBC 30-75 mg/kg, naltrexone 30-75 mg/kg; for EtOH responding 24 hours after administration: βCCt 15 & 75 mg/kg
Excerpt: In this study we compared the suppressant effect of βCCt and 3-PBC with naltrexone, a currently used alcohol antagonist on the market. As it is shown in FIG. 29A-B, orally administered βCCt can reduce alcohol responding, however, the effects are not dose related. In addition, 24 hr after administration of βCCt, it continues to reduce alcohol responding with selected doses. […] The suppressant effects of naltrexone in reducing alcohol responding are also dissipated 24 hr after the administration. […] Unlike naltrexone, the suppressant effects observed by βCCt and 3-PBC are selective for alcohol, and not reinforcers in general.

[6] = molecular target: T4, α5β3γ2 GABAA receptor (Homo sapiens, UniProt P18507+P31644); test: Binding affinity at recombinant GABAA receptors (Ltk cells stably transfected)
T4 construct: expressed in transfected cells

[7] = molecular target: T5, GABAA α1β3γ2 receptors (Rattus norvegicus, UniProt P18508+P62813); test: Xenopus oocyte expression assay, modulation of GABA current; type: cell-based; details: saturating 1-10 μM modulator with EC50 GABA (50 μM); mean±S.D.
T5 construct: expressed in transfected cells; host or cells: Xenopus laevis oocytes injected with cRNA

[8] = molecular target: T6, α6β3γ2 GABAA receptor (Homo sapiens, UniProt P18507+Q16445); test: Binding affinity at recombinant GABAA receptors (Ltk cells stably transfected); details: recombinant αxβ3γ2; read-out: Ki α6
T6 construct: expressed in transfected cells

[9] = test system: alcohol-preferring (P) rats; test: Operant self-administration, concurrent FR4 schedule for EtOH and saccharin; type: in vivo, rat; details: for EtOH-maintained responding / saccharin-maintained responding: bilateral infusion 5-40 μg in NACC/caudate putamen (neuroanatomical control)
Procedure: Behavioral testing was conducted in 15 standard operant chambers (Coulbourn Instruments) equipped with two removable levers and two dipper fluid delivery systems enclosed in sound-attenuated cubicles as previously described (June et al., 1998a,b). A concurrent fixed-ratio schedule was employed to investigate the capacity of systemic and direct microinjections of 3-PBC in the CNS to modify EtOH and saccharin-maintained responding. The specific details of these procedures have recently been described (June et al., 1998; 1999; 2001). In brief, rats were initially trained to orally self-administer EtOH and water in daily 60 min sessions on a concurrent FRI schedule in a two-lever choice situation. After a period of stabilization on the FRI schedule, the response requirement was increased to a concurrent FR4 schedule and the water reinforcer was replaced with saccharin (0.025-0.05% w/v). The importance of alternative and concurrently presented reinforcers in examining the positive reinforcing properties of drugs of abuse has been discussed previously (Meisch and Lemaire, 1993; June et al., 2001; June in press).
3-PBC was administered 15 min before the operant session to allow for optimal absorption and CNS distribution. […] The duration of the operant sessions was 60 min, however, subjects were tested at 24 and 48 hour post drug administration to determine any residual drug effects. A minimum of 72-96 hours were allocated between drug treatments to permit animals to return to baseline levels. This period prevented confounding of drug treatments due to residual effects (for details see June et al., 1998b).
Guide cannulas were stereotaxically implanted bilaterally in the anterior (AP +0.48; ML ±1.6; DV −7.2, with 6° lateral angle) (n=8) and medial (AP −0.26; ML ±2.5; DV −7.0) (n=6) VP. The neuroanatomical control rats were bilaterally implanted in either the caudate putamen or NACC. The coordinates for the caudate putamen were AP +1.5; ML ±2.5; DV 4.2 (n=3). In the NACC group some rats were implanted in the shell [AP +1.4; ML +0.8; DV −6.0] (n=3) while others were implanted in the core [AP +1.4; ML ±1.7; DV −5.71] (n=3). All coordinates are given in millimeters relative to Bregma based on the Paxinos and Watson (1998) atlas. Subjects were given 7 days to recover from surgery before returning to training in the operant chamber. The 3-PBC infusions were delivered immediately before the operant session with a Harvard infusion pump in aCSF (composition in mM: NaCl, 120; KCl, 4.8; KH2PO4, 1.2; MgSO4, 1.2; NaHCO3, 25; CaCl2, 2.5; d-glucose, 10) as previously described (for details see June et al., 2001).
Statistical Analysis The operant maintained responding data were analyzed by a single factor repeated measures ANOVA with drug treatment (i.e., dose) as the independent factor. The dependent variables were EtOH and saccharin-maintained responding. Each dependent variable was analyzed separately. Post-hoc comparisons between individual drug treatments were made using the Newman Keuls Test in all experiments. In systemic studies, drug treatment comparisons were made against the no injection (e.g., baseline=BL) and Tween-20 vehicle control conditions. In the microinjection studies, drug treatment comparisons were made against the no injection control condition (e.g., baseline=BL) and aCSF control condition. All microinjection data were obtained and analyzed following correct histological verification under a light microscope. To determine the time course of antagonism across the 60 min session, a single factor ANOVA was conducted at each of the six-10 min intervals on the cumulative response data for the respective drug treatment conditions relative to the pooled controlled conditions. EtOH and saccharin maintained responding data were analyzed separately. Post-hoc analyses were performed on the cumulative interval data using the least significant difference (LSD) test. […]

[10] = test system: selected rodent lines; test: Plus-maze test in selected rodent lines; type: in vivo; details: particularly at moderate to high doses (>7.5 mg/kg)
[11] = molecular target: T7, GABAA α5β3γ2 receptors (Rattus norvegicus, UniProt P18508+P19969); test: Xenopus oocyte expression assay, modulation of GABA current; type: cell-based; details: saturating 1-10 μM modulator with EC50 GABA (30 μM); mean±S.D.
T7 construct: expressed in transfected cells; host or cells: Xenopus laevis oocytes injected with cRNA

[12] = molecular target: T1, α1β3γ2 GABAA receptor; details: recombinant receptors (Cox et al., 1995); cited from earlier work
[13] = bilateral infusion in ventral pallidum (VP), 3-PBC 0.5-40 μg, βCCt 5-40 μg
[14] = i.p. 15 min before 60 min session, 3-PBC 1-20 mg/kg, βCCt 5-40 mg/kg
[15] = i.p., 3-PBC 1-10 mg/kg, βCCt 5-40 mg/kg

T1 sequence (P14867 28-456): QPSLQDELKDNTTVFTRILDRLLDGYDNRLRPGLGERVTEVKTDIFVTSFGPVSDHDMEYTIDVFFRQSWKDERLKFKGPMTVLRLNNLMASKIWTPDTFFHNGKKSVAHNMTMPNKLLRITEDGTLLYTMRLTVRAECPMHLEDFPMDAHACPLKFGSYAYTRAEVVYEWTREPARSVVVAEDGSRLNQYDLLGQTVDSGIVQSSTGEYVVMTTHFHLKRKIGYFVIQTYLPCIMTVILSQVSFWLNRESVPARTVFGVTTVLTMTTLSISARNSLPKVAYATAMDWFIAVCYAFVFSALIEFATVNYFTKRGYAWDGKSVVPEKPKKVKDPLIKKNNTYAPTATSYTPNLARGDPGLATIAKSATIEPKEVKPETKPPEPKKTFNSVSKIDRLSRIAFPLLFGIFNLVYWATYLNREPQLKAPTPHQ
T1 sequence (P28472 26-473 partner): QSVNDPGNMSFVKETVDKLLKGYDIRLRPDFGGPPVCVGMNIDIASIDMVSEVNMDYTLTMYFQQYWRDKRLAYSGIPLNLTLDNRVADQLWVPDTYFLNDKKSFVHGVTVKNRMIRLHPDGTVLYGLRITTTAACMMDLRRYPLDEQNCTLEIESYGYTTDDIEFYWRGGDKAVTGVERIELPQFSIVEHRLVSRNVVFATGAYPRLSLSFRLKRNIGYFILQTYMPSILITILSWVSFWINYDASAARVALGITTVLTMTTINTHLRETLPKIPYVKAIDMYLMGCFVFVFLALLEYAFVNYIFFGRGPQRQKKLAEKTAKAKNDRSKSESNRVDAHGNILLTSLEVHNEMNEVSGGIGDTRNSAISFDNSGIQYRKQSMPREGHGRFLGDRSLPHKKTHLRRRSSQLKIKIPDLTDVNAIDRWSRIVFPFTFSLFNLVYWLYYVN
T1 sequence (P18507 40-475): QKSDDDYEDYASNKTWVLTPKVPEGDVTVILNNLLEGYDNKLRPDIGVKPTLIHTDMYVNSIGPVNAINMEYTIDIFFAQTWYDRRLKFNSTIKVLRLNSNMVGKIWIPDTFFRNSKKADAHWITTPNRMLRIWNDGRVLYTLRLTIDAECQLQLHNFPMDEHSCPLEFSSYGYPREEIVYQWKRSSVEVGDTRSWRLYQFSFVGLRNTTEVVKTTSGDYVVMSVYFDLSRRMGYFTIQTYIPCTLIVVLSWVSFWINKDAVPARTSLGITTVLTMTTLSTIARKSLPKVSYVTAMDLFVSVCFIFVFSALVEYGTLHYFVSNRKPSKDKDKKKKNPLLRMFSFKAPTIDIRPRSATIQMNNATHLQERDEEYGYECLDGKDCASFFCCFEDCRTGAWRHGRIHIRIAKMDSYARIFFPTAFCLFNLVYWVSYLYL
T2 sequence (P47869 29-451): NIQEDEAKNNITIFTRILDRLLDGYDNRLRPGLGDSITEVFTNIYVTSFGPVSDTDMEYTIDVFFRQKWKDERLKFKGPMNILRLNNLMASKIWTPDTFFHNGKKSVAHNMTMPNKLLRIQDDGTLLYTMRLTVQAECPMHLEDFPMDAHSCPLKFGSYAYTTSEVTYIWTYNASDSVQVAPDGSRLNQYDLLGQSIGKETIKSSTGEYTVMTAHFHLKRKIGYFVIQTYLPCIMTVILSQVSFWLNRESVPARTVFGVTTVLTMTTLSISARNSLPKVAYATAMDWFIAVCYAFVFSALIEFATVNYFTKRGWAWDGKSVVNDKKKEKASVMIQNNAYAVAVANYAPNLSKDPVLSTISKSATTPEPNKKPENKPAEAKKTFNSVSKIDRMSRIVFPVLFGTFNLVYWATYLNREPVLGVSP
T2 sequence (P28472 26-473 partner): as the sequence (P28472 26-473 partner) above
T2 sequence (P18507 40-475): as the sequence (P18507 40-475) above
T6 sequence (Q16445 20-453): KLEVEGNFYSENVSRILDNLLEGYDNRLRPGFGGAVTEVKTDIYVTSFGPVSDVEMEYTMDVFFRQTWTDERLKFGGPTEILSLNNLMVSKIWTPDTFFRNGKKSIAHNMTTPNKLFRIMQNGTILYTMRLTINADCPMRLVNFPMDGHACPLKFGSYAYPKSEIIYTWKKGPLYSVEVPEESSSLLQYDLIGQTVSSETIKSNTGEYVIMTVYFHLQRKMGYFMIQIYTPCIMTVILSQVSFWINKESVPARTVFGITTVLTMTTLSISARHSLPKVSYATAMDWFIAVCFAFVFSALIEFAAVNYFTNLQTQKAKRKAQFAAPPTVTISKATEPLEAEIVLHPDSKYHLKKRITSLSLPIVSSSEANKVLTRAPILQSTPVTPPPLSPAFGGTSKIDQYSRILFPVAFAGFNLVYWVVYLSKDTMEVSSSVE
T6 sequence (P28472 26-473 partner): as the sequence (P28472 26-473 partner) above
T6 sequence (P18507 40-475): as the sequence (P18507 40-475) above
T4 sequence (P31644 32-462): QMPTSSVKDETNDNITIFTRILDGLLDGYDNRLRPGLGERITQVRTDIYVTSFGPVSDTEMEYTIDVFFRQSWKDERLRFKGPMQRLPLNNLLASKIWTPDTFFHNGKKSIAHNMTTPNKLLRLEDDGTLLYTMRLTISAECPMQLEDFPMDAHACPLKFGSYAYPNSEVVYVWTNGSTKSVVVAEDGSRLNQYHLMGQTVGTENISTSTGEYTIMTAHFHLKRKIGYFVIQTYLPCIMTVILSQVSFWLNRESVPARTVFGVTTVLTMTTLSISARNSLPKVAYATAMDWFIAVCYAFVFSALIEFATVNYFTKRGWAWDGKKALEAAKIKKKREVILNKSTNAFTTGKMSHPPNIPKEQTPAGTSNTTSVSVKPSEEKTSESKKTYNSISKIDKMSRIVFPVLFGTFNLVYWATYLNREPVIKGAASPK
T4 sequence (P28472 26-473 partner): as the sequence (P28472 26-473 partner) above
T4 sequence (P18507 40-475): as the sequence (P18507 40-475) above
T3 sequence (P34903 29-492): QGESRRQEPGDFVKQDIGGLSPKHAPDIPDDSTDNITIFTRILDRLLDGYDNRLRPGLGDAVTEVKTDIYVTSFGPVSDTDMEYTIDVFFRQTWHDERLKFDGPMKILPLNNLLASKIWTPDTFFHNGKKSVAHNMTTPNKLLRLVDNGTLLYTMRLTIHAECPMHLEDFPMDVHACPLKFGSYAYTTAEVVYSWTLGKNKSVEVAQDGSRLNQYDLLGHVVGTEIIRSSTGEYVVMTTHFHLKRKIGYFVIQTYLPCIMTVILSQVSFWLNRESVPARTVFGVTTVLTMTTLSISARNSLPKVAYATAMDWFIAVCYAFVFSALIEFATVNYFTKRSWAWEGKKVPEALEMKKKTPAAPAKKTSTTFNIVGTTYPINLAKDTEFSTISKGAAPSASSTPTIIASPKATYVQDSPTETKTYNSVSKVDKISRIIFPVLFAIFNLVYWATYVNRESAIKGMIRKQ
T3 sequence (P28472 26-473 partner): as the sequence (P28472 26-473 partner) above
T3 sequence (P18507 40-475): as the sequence (P18507 40-475) above
T7 sequence (P19969 32-464 limits assumed): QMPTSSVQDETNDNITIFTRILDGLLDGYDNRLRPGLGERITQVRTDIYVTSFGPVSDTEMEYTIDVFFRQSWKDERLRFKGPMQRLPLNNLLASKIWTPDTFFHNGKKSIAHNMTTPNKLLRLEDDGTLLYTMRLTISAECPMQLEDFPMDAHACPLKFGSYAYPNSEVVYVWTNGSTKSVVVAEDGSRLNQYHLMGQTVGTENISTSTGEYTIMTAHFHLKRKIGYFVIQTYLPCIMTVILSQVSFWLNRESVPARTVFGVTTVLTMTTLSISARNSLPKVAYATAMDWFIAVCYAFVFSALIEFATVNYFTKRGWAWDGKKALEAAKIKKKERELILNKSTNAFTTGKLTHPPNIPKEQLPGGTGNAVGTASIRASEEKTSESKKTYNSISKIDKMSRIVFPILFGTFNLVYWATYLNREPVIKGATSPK
T7 sequence (P63079 26-473 partner): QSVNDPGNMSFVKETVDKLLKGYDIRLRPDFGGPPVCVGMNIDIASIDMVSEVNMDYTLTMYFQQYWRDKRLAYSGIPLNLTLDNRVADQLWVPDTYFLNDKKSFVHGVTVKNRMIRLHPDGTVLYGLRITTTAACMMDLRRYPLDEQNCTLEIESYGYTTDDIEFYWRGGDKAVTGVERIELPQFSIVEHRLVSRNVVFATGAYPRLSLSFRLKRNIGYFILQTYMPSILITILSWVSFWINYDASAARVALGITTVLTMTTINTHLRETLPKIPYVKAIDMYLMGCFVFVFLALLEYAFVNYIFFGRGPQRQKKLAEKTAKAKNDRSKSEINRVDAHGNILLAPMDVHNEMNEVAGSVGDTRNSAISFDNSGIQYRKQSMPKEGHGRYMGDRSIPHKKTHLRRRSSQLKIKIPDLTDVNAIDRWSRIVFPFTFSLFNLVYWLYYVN
T7 sequence (P18508 39-466): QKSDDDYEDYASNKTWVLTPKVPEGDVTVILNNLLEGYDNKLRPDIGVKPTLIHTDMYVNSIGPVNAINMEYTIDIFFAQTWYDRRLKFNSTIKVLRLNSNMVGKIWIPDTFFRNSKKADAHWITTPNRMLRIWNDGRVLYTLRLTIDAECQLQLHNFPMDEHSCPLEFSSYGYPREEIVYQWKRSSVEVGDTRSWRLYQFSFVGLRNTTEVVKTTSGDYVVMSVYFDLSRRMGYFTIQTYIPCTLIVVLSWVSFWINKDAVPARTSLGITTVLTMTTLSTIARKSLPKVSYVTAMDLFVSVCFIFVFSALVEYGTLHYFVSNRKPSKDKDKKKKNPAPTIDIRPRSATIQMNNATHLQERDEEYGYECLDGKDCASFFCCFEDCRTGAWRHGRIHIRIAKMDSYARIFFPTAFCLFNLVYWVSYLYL

SMILES | % of GABA response, α3 [2] | responding for sucrose [5] | EtOH responding [5] | EtOH responding 24 hours after administration [5] | Ki [8] | EtOH-maintained responding [9] | saccharin-maintained responding [9] | saccharin-maintained responding, total session ([9]; bilateral infusion in VP) | EtOH-maintained responding, total session [9, 13] | EtOH-maintained responding, total session [9, 14] | saccharin-maintained responding, total session [9, 15] | anxiolytic effects in the plus-maze test [10] | other results
CCCOc1cc2c(cn1)[nH]c1ccccc12.Cl [3-PBC, 3-Propoxy-β-carboline hydrochloride] | 119±6% | fails to alter responding for sucrose | dose-dependently reduces EtOH responding | dissipated | > 1000 nM | without effect | without effect | only the 40 μg dose significantly reduced saccharin responding | dose-dependently reduced | significant dose-related reduction | significant elevation | capable of producing anxiolytic effects | selectivity for α1 relative to α2 ([1]; binding selectivity): 9.8 fold; selectivity for α1 relative to α3 ([1]; binding selectivity): 13 fold; selectivity for α1 relative to α5 ([1]; binding selectivity): 111 fold; Ki ([1]; recombinant αxβ3γ2, read-out: Ki α1): 5.3 nM; Ki ([3]; recombinant αxβ3γ2, read-out: Ki α2): 52.3 nM; Ki ([4]; recombinant αxβ3γ2, read-out: Ki α3): 68.8 nM; Ki ([6]; recombinant αxβ3γ2, read-out: Ki α5): 591 nM; % of GABA response, α1 [7]: 113±4%; cumulative within session alcohol responding ([9]; VP infusion, initial 10 and 20 min intervals): significant reduction; saccharin-maintained responding, total session ([9]; i.p. 20 mg/kg): significantly suppressed; cumulative within session EtOH responding ([9]; i.p., first 10, 20 and 30 min intervals): suppressed the initiation of EtOH responding
CC(C)(C)OC(=O)c1cc2c(cn1)[nH]c1ccccc12 [βCCt, β-carboline-3-carboxylate t-butyl ester] | 108±6% | fails to alter responding for sucrose | significantly reduces EtOH responding | significantly reduce EtOH responding | > 1000 nM | none of the βCCt treatments altered | none of the βCCt treatments altered | did not alter | dose-dependently reduced | all doses significantly suppressed | without effect | capable of producing anxiolytic effects | Ki [1]: 0.72 nM; fold more selective than flumazenil at α1 sites ([1]; binding selectivity): over 20 fold; fold more selective than zolpidem at α1 sites ([1]; binding selectivity): 3.5 fold; % of GABA response, α5 [11]: 88±7%; Ki [3]: 15 nM; selectivity for A1 over the A5 subtype [12]: > 110 fold; selectivity for GABAA1 over the A2 and A3 receptors [12]: > 10 fold; Ki [4]: 18.9 nM; Ki [6]: 111 nM; suppression of EtOH responding 24 hr post-drug ([9]; i.p. 40 mg/kg, 24 hr post-drug administration): 76 % of control levels
